Seven molecules from patent US20260125362A1, “TARGETED PROTEIN DEGRADATION OF PARP14 FOR USE IN THERAPY” (AbbVie Biotechnology Ltd, priority 2019, published 2026) can be followed below.

Each structure is given as a SMILES string. Where only a bound is given, the exact number is not on record here.

In experiment [1] the target is T1, catalytic domain of human PARP14 (Homo sapiens, UniProt Q460N5).
T1 construct: made in house; host or cells: Escherichia coli
T1 sequence (Q460N5 1611-1801): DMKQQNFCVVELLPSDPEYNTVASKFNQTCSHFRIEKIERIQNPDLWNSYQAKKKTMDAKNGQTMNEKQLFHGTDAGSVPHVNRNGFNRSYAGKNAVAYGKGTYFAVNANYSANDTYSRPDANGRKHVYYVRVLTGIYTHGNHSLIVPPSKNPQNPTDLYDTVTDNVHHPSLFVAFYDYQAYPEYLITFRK
In words: Enzymatic assay for inhibition of PARP14 (DELFIA, auto-modification with biotin-NAD). Format: biochemical. The settings on record: compounds corresponding to group Q. The procedure: The catalytic domain of human PARP14 (residues 1611 to 1801, GenBank Accession No. NM_017554) was overexpressed in Escherichia coli cells. An N-teininal His-TEV fusion tag was used to purify the protein from cell lysates. The His-TEV tag was left on the protein for use in the enzymatic assay.
Enzymatic inhibition of PARP14 was measured using a dissociation-enhanced lanthanide fluorescence immunoassay (DELFIA) monitoring the auto-modification of PARP14 by biotinylated nicotinamide adenine dinucleotide (biotin-NAD), 1 μL of a dose response curve of each test compound was spotted in 384-well nickel-coated white microplates (Therno) using a Mosquito (TTP Labtech). Reactions were performed in a 50 p L volume by adding 40 μL of PARP14 in assay buffer (20 mM HEPES pH=8, 100 mM NaCl, 0.1% bovine serum albumin. 2 mM DTT and 0.002% Tween20), incubating with test compound at 25° C. for 30 min, then adding 10 μL of biotin-NA D (Biolog). The final concentrations of PARP14 and biotin-NAD are 50 nM and 3 μM, respectively. Reactions proceeded at 25° C. for 3 h, then were quenched with 5 μL of 10 mM unmodified nicotinamide adenine dinucleotide (Sigma-Aldrich). The quenched reactions were washed 3 times with 100 μL of TBST wash buffer (50 mM Tris-HCl, 150 mnM NaCl and 0.1% Tween20). Next, to the washed and dried plate was added 25 μL of DELFIA Europium-NI streptavidin (Perkin Elmer) diluted in DELFIA assay buffer (Perkin Elmer). After a 30 min incubation at 25° C., the plate was washed 5 times with TBST wash buffer. Finally, 25 μL of DELFIA enhancement solution was added. After a 5 min incubation the plate was read on an Envision platereader equipped with a LANCE/DELFIA top mirror (Perkin Elmer) using excitation of 340 nm and emission of 615 nm to measure the amount of Europium present in each well, informing on the amount of biotin-NAD that was transferred in the automodification reaction. Control wells containing a negative control of 2% DMSO vehicle or a positive control of 100 μM rucaparib were used to calculate the % inhibition as described below:
where ex615cmpd is the emission from the compound treated well, ex615min, is the emission from the rucaparib treated positive control well and ex615max is the emission from the DMSO treated negative control well.
The % inhibition values were plotted as a function of compound concentration and the following 4-parameter fit was applied to derive the IC50 values:
where top and bottom are normally allowed to float, but may be fixed at 100 or 0 respectively in a 3-parameter fit. The Hill Coefficient is normally allowed to float but may also be fixed at 1 in a 3-parameter fit. Y is the % inhibition and X is the compound concentration.

For another experiment, the target named is T2, PARP14 (Homo sapiens, UniProt Q460N5).
T2 construct: endogenous in cells; host or cells: KYSE270
T2 sequence (Q460N5 whole entry): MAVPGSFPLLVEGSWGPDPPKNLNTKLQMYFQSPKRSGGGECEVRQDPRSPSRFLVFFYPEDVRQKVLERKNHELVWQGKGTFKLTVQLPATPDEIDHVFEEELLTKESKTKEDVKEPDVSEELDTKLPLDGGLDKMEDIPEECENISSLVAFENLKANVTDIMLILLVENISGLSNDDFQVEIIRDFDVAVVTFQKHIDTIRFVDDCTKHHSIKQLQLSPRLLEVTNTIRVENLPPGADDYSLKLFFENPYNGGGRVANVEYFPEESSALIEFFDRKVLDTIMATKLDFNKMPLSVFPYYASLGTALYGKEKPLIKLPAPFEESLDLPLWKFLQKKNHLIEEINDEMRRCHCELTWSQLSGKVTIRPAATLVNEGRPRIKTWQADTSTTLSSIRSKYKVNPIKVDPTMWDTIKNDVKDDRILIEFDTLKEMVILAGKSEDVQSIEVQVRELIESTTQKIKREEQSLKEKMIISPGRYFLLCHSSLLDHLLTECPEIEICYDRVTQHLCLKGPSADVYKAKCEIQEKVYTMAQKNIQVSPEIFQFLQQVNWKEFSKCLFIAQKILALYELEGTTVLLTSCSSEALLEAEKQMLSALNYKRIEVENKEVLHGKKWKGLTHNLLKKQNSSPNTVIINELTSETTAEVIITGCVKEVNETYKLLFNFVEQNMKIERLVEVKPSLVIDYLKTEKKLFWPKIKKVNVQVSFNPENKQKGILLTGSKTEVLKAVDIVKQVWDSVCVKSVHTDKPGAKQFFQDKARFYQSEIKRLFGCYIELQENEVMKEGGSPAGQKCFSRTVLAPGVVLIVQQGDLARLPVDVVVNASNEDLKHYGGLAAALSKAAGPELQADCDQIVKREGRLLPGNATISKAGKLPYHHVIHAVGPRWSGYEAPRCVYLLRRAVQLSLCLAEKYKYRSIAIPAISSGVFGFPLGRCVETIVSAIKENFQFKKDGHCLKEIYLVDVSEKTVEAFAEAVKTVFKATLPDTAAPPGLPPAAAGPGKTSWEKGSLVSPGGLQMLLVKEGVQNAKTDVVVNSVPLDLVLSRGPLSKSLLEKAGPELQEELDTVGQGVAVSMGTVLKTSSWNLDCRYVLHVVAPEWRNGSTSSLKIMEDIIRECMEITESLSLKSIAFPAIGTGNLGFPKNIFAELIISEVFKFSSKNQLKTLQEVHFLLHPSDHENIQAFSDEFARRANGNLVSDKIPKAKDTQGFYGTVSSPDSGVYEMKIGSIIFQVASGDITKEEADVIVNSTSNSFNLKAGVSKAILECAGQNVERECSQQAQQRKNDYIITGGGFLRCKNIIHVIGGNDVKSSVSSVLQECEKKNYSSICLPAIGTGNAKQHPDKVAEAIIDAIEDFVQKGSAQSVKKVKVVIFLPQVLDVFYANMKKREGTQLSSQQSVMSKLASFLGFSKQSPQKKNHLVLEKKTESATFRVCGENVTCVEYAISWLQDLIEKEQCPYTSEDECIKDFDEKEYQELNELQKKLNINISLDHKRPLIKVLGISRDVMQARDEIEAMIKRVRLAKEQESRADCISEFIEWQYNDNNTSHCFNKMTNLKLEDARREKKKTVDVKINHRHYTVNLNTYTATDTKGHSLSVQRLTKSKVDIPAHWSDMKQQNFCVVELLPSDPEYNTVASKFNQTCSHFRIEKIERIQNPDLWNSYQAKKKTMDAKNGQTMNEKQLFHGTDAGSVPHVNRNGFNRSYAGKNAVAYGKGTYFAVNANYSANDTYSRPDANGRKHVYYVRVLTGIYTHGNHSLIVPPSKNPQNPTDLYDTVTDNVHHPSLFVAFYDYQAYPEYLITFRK
In words: PARP14 degradation assay (Western blot) in KYSE270 cells. The settings on record: 24 h. Format: cell-based. The procedure:
KYSE270 cells were seeded at a density of […] in 6-well plates and incubated overnight. Once attached, cells were treated with the compounds of Examples 1-4 at increasing concentrations (0.001 μM, 0.01 μM, 0.1 μM, 1 μM, and 10 μM; 0.003 μM, 0.03 μM, 0.3 μM, and 3 μM were also evaluated for the compound of Example 1), or with DMSO for 24 h. Media was gently aspirated and cells washed 3 times with 2 mL of ice cold PBS while on ice. The PBS was completely aspirated and 75 μl freshly prepared lysis buffer (Thermo Fisher 78501) was added to cells before scraping into the buffer. Lysates were collected in microcentrifuge tubes and incubated on ice for 15 minutes. Lysates were centrifuged at 10,000 rpm for 15 min at 4° C. and supernatants collected into fresh microcentrifuge tubes. Protein concentration was measured using a reducing agent compatible with the Pierce BCA Protein Assay Kit (Thermo Fisher 23250). Samples were prepared in loading buffer (LI-COR 928-40004) containing 5% β-mercaptoethanol, and incubated at 95° C. for 5 min. Protein lysates were resolved on 4-12% Tris-Acetate gels in MOPS running buffer with 60 μg of protein per well. Western blot transfers were done with PVDF membranes (LI-COR Immobilon) with 20 volts for 14 minutes. Primary antibodies (PARP14: in house generated mouse antibody (15A6 LotIC), β-actin: D6A8 (8457)) were incubated at 1:1,000 dilution using the odyssey blocking buffer (LI-COR 927-50000) for 2 h at room temperature and detected with secondary antibody (LI-COR 926-68072, 926-32211). Mouse antibody 15A6 Lot1C was generated by immunizing with recombinant human PARP14 catalytic domain protein. After hybridoma fusion, the parental clones were screened for reactivity against PARP14 catalytic domain, which were then subcloned to generate monoclones including 15A6-1. Monoclonal supernatants were tested by Western blotting against THP-1 and THP-1 PARP14 KO cells to confirm reactivity. The PARP14 antibody was produced by culturing the 15A6-1 hybridoma monoclone in 1L of serum free media+2% low IgG FBS. […]
On the technique in general: In western blotting, separated proteins are transferred to a membrane and probed.

A further experiment relates to IL-10 production. The experiment can be described thus: Reduction of IL-10 production in IL-4 stimulated M2-like macrophages (ELISA). Format: cell-based. The settings on record: IL-4 stimulated M2-like macrophages from human monocytes; 1, 0.1 or 0.01 μM. The procedure: Monocytes were isolated from peripheral human blood and cultured in the presence of M-CSF and the compound of Example 1 (at 1, 0.1 or 0.01 μM) for 72 h. M-CSF differentiates monocytes into M-0 macrophages. Subsequently medium was replaced with fresh medium containing IL-4 and the compound of Example 1 (at 1, 0.1 or 0.01 μM), and cells were incubated for another 48 h. Isolation of primary human monocytes from whole blood: Primary monocytes were isolated from whole blood (iSPECIMEN; 500 mL) collected from healthy donors. Blood was diluted at a 1:1 ratio with EasySep buffer (STEMCELL Technologies 20144) and layered onto lymphoprep (STEMCELL Technologies 07811) in SepMate tubes (STEMCELL Technologies 85450) for PBMC isolation according to the manufacturer's instructions. […] Cells were treated with the compound of Example 1 or DMSO on day 6 after seeding at 1 μmol/L, 0.1 μmol/L, and 0.01 μmol/L. IL-10 determination: Levels of IL-10 in the supernatants of human primary M2 macrophages were determined with the IL-10 ELISA kit (STEMCELL Technologies 02013) according to the manufacturer's instructions. Briefly, supernatants were collected at the indicated time point and depleted of any floating cells before being stored at −80° C. until ready to use. IL-10 concentrations were determined from the kit's IL-10 standard curve and normalized to total cell protein.
Background: An ELISA detects its analyte on a solid surface through an enzyme-linked reagent.

As a reminder, the IC50 is the point on the concentration scale where inhibition reaches its midpoint. Read a low IC50 as higher potency. For `O=c1[nH]c(CSC2CCC(O)CC2)nc2cc(OCC3CCCOC3)cc(F)c12` (centres unmarked), the IC50 in experiment [1] was less than 1000 nM.

Take `O=C1CCC(N2C(=O)c3cccc(NCCCCCCCC(=O)N[C@H]4CC[C@H](SCc5nc6cc(OCC7CCOCC7)cc(F)c6c(=O)[nH]5)CC4)c3C2=O)C(=O)N1` (some centres unmarked) [Example 3, 8-((2-(2,6-dioxopiperidin-3-yl)-1,3-dioxoisoindolin-4-yl)amino)-N-((1r,4r)-4-(((5-fluoro-4-oxo-7-((tetrahydro-2H-pyran-4-yl)methoxy)-3,4-dihydroquinazolin-2-yl)methyl)thio)cyclohexyl)octanamide]: the “hook effect at higher concentrations (PARP14 degradation)” value (“hook effect at higher concentrations” for short) at PARP14 is listed as “amelioration of efficacy”. In turn, `O=c1[nH]c(CS[C@H]2CC[C@@H](O)CC2)nc2cc(OCC3CCOCC3)cc(F)c12` showed an IC50 in experiment [1] of less than 1000 nM.

In the case of `O=C(CN1CCC(SCc2nc3cc(NC4CCCC4)cc(F)c3c(=O)[nH]2)CC1)NCCCCCCNc1cccc2c1C(=O)N(C1CCC(=O)NC1=O)C2=O.O=C(O)C(F)(F)F` (centres unmarked) [Example 1, 2-(4-(((7-(Cyclopentylamino)-5-fluoro-4-oxo-3,4-dihydroquinazolin-2-yl)methyl)thio)piperidin-1-yl)-N-(6-((2-(2,6-dioxopiperidin-3-yl)-1,3-dioxoisoindolin-4-yl)amino)hexyl)acetamide trifluoroacetate], in the experiment with IL-10 production, the “IL-10 production (IL-10 levels in tissue culture supernatant, ELISA)” value is “decreased IL-10 production”. Also, the “hook effect at higher concentrations” value at PARP14 is “amelioration of efficacy”. For the molecule `O=C1CCC(N2C(=O)c3cccc(NCCC(=O)N[C@H]4CC[C@H](SCc5nc6cc(OCC7CCOCC7)cc(F)c6c(=O)[nH]5)CC4)c3C2=O)C(=O)N1` (some centres unmarked) [Example 4, 3-((2-(2,6-dioxopiperidin-3-yl)-1,3-dioxoisoindolin-4-yl)amino)-N-((1r,4r)-4-(((5-fluoro-4-oxo-7-((tetrahydro-2H-pyran-4-yl)methoxy)-3,4-dihydroquinazolin-2-yl)methyl)thio)cyclohexyl)propanamide], the “hook effect at higher concentrations” value at PARP14 is “amelioration of efficacy”. For `O=c1[nH]c(CSC2CCNCC2)nc2cc(NC3CCCC3)cc(F)c12`, the IC50 in experiment [1] is less than 1000 nM. The same measure, in the same setting: under `O=c1[nH]c(CS[C@H]2CC[C@H](O)CC2)nc2cc(OCC3CCOCC3)cc(F)c12` stands less than 1000 nM.
